Results reported in patent US7105506B2, “Tetracyclic compounds as PDE5-inhibitors” (Lilly Icos LLC, priority 2001, dated 2006).

Molecular target: T1, recombinant human PDE5 (Homo sapiens, UniProt O76074)
T1 construct: host or cells: Saccharomyces cerevisiae protease-deficient strain BJ2-54 (ATCC 74465)
Experiment: PDE5 inhibition (cGMP-PDE one-step assay)
Type: biochemical
Details: In vitro
Method: The compounds of structural formula (I) were tested for an ability to inhibit PDE5. The ability of a compound to inhibit PDE5 activity is related to the IC50 value for the compound, i.e., the concentration of inhibitor required for 50% inhibition of enzyme activity. The IC50 value for compounds of structural formula (I) were determined using recombinant human PDE5.
Phosphodiesterase activity of the preparations was determined as follows. PDE assays utilizing a charcoal separation technique were performed essentially as described in Loughney et al. (1996). In this assay, PDE activity converts [32P]cAMP or [32P]cGMP to the corresponding [32P]5′-AMP or [32P]5′-GMP in proportion to the amount of PDE activity present. The [32P]5′-AMP or [32P]5′-GMP then was quantitatively converted to free [32P]phosphate and unlabeled adenosine or guanosine by the action of snake venom 5′-nucleotidase. […] The assay was performed at 30° C. in a 100 μL reaction mixture containing (final concentrations) 40 mM iris HCl (pH 8.0), 1 μM ZnSO4, 5 mM MgCl2, and 0.1 mg/mL bovine serum albumin (BSA). PDE enzyme was present in quantities that yield <30% total hydrolysis of substrate (linear assay conditions). The assay was initiated by addition of substrate ([…] [^32P]cAMP or cGMP), and the mixture was incubated for 12 minutes. Seventy-five (75) […] of Crotalus atrox venom then was added, and the incubation was continued for 3 minutes (15 minutes total). The reaction was stopped by addition of 200 μL of activated charcoal (25 mg/mL suspension in 0.1 M NaH2PO4, pH 4). After centrifugation. (750×g for 3 minutes) to sediment the charcoal, a sample of the supernatant was taken for radioactivity determination in a scintillation counter and the PDE activity was calculated.
cGMP-PDE activity of compounds of the present invention was measured using a one-step assay adapted from Wells et al., Biochim. Biophys. Acta, 384, 430 (1975). The reaction medium contained 50 mM Tris-HCl, pH 7.5, 5 mM magnesium acetate, 250 μg/ml 5′-Nucleotidase, 1 mM EGTA, and 0.15 μM 8-[H^3]-cGMP. Unless otherwise indicated, the enzyme used was a human recombinant PDE5 (ICOS Corp., Bothell, Wash.).
Compounds of the invention were dissolved in DMSO finally present at 2% in the assay.

SMILES	IC50 [µM]
C[C@@H]1c2c([nH]c3ccccc23)[C@@H](c2ccc3c(c2)OCO3)N2C(=O)CN(C)C(=O)[C@@H]12 (racemic) [Example 4a, (+−, cis, trans methyl)-6-Benzo[1,3]dioxol-5-yl-2,12-dimethyl-2,3,6,7,12,12a-hexahydropyrazino[1′,2′:1,6]pyrido[3,4-b]indole-1,3-dione]	0.004
CN1CC(=O)N2[C@H](c3ccc4c(c3)OCO4)c3[nH]c4ccccc4c3C[C@]2(C)C1=O [Example 1, (6R,12aR)-6-Benzo[1,3]dioxol-5-yl-2,12a-dimethyl-2,3,6,7,12,12a-hexahydro-pyrazino-[1,2′:1,6]pyrido[3,4-b]indole-1,4-dione]	0.046
C[C@@H]1c2c([nH]c3ccccc23)[C@H](c2ccc3c(c2)OCO3)N2C(=O)CN(C)C(=O)[C@@H]12 (racemic) [Example 4b, (+−, trans, trans methyl)-6-Benzo[1,3]dioxol-5-yl-2,12-dimethyl-2,3,6,7,12,12a-hexahydropyrazino[1′,2′:1,6]pyrido[3,4-b]indole-1,3-dione]	0.063
CN1CC(=O)N2[C@H](c3ccc4c(c3)OCO4)c3[nH]c4ccccc4c3[C@@H](c3ccccc3)[C@@H]2C1=O (racemic) [Example 3, (+−, 6,12a cis-12,12a-trans)-6-Benzo-(1,3)-dioxol-5-yl-methyl-12-phenyl-2,3,6,7,12,12a-hexahydro-pyrazino[1′,2′:1,6]pyrido[3,4-b]indole-1,4-dione]	0.047

Second part, the molecule after the results:

IC50 [µM]	SMILES
0.685	CN1CC(=O)N2[C@H](Cc3c([nH]c4ccccc34)[C@@]2(C)c2ccc3c(c2)OCO3)C1=O [Example 2a, (+−, Cis)-6-Benzo[1,3]dioxol-5-yl-2,6-dimethyl-2,3,6,7,12,12a-hexahydropyrazino-[1′,2′:1,6]pyrido[3,4-b]indole-1,4-dione]
0.142	CN1CC(=O)N2[C@H](Cc3c([nH]c4ccccc34)[C@@]2(O)c2ccc3c(c2)OCO3)C1=O [Example 5, (6S,12aR)-6-Benzo[1,3]dioxol-5-yl-6-hydroxy-2-methyl-2,3,6,7,12,12a-hexahydropyrzino[1′,2′:1,6]pyrido[3,4-b]indole-1,4-dione]
0.26	CN1CC(=O)N2[C@H](Cc3c([nH]c4ccccc34)[C@]2(C)c2ccc3c(c2)OCO3)C1=O [Example 2b, (+−, trans)-6-Benzo[1,3]dioxol-5-yl-2,6-dimethyl-2,3,6,7,12,12a-hexahydropyrazino-[1′,2′:1,6]pyrido[3,4-b]indole-1,4-dione]
